# From the supplement of paper PMC10307832
# What was measured:
# Assay in all cases: relative viability (nuclei count vs DMSO), 5 days (fraction); higher = more cells survive
# NCI-H838 = tested on: NCI-H838
# In short: (§1)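 Lung cancer cell lines were pin-tool dosed in 1536-well plates on the day after seeding, with either a lone drug or a fixed anchor-drug dose plus five library-drug doses (not always all listed) in √10 steps. Nuclei were counted on 4× images after 5 days. Relative viability is the ratio of treated-well to vehicle-well nuclei counts, with each value a median of duplicate plates.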
# HCC-78 = tested on: HCC-78
# In short: as §1
# EKVX = tested on: EKVX
# In short: as §1
# HOP-62 = tested on: HOP-62
# In short: as §1
# NCI-H2087 = tested on: NCI-H2087
# In short: as §1
# LOU-NH91 = tested on: LOU-NH91
# In short: as §1
# HCC-44 = tested on: HCC-44
# In short: as §1
# ChaGo-K-1 = tested on: ChaGo-K-1
# In short: as §1
# SK-MES-1 = tested on: SK-MES-1
# In short: as §1
# HCC-366 = tested on: HCC-366
# In short: as §1
# NCI-H358 = tested on: NCI-H358
# In short: as §1
# COR-L23 = tested on: COR-L23
# In short: as §1
# NCI-H661 = tested on: NCI-H661
# In short: as §1
# A-427 = tested on: A-427
# In short: as §1
# NCI-H1915 = tested on: NCI-H1915
# In short: as §1
# NCI-H1650 = tested on: NCI-H1650
# In short: as §1
# NCI-H1734 = tested on: NCI-H1734
# In short: as §1
# NCI-H650 = tested on: NCI-H650
# In short: as §1
# NCI-H2023 = tested on: NCI-H2023
# In short: as §1
# EPLC-272H = tested on: EPLC-272H
# In short: as §1
# NCI-H596 = tested on: NCI-H596
# In short: as §1
# NCI-H3122 = tested on: NCI-H3122
# In short: as §1
compound,measurement,setting,value
O=c1[nH]c2ccccc2n1C1CCN(CCCC(c2ccc(F)cc2)c2ccc(F)cc2)CC1 [Pimozide] + C[C@@H](Oc1cc(-c2cnn(C3CCNCC3)c2)cnc1N)c1c(Cl)ccc(F)c1Cl [Crizotinib] (partner 1 µM),relative viability,NCI-H838; first compound 0.08 µM,0.855
same,relative viability,NCI-H838; first compound 0.253 µM,0.808
same,relative viability,NCI-H838; first compound 0.8 µM,0.786
same,relative viability,NCI-H838; first compound 2.53 µM,0.774
same,relative viability,NCI-H838; first compound 8 µM,0.955
same,relative viability,HCC-78; first compound 0.08 µM,0.263
same,relative viability,HCC-78; first compound 0.253 µM,0.339
same,relative viability,HCC-78; first compound 0.8 µM,0.333
same,relative viability,HCC-78; first compound 2.53 µM,0.354
same,relative viability,HCC-78; first compound 8 µM,0.315
same,relative viability,EKVX; first compound 0.253 µM,0.949
same,relative viability,EKVX; first compound 0.8 µM,0.895
same,relative viability,EKVX; first compound 2.53 µM,0.865
same,relative viability,EKVX; first compound 8 µM,0.876
same,relative viability,HOP-62; first compound 0.08 µM,1.03
same,relative viability,HOP-62; first compound 0.253 µM,0.859
same,relative viability,HOP-62; first compound 2.53 µM,0.819
same,relative viability,HOP-62; first compound 8 µM,0.991
same,relative viability,NCI-H2087; first compound 0.08 µM,0.856
same,relative viability,NCI-H2087; first compound 0.253 µM,0.721
same,relative viability,NCI-H2087; first compound 0.8 µM,0.604
same,relative viability,NCI-H2087; first compound 2.53 µM,0.826
same,relative viability,NCI-H2087; first compound 8 µM,0.889
same,relative viability,LOU-NH91; first compound 0.08 µM,0.52
same,relative viability,LOU-NH91; first compound 0.253 µM,0.733
same,relative viability,LOU-NH91; first compound 0.8 µM,0.73
same,relative viability,LOU-NH91; first compound 2.53 µM,0.759
same,relative viability,LOU-NH91; first compound 8 µM,0.581
same,relative viability,HCC-44; first compound 0.08 µM,0.73
same,relative viability,HCC-44; first compound 0.253 µM,0.733
same,relative viability,HCC-44; first compound 0.8 µM,0.743
same,relative viability,HCC-44; first compound 2.53 µM,0.829
same,relative viability,HCC-44; first compound 8 µM,0.75
same,relative viability,ChaGo-K-1; first compound 0.08 µM,1.18
same,relative viability,ChaGo-K-1; first compound 0.253 µM,1.04
same,relative viability,ChaGo-K-1; first compound 0.8 µM,1.15
same,relative viability,ChaGo-K-1; first compound 2.53 µM,1.02
same,relative viability,ChaGo-K-1; first compound 8 µM,0.944
same,relative viability,SK-MES-1; first compound 0.08 µM,0.882
same,relative viability,SK-MES-1; first compound 0.253 µM,0.928
same,relative viability,SK-MES-1; first compound 0.8 µM,0.957
same,relative viability,SK-MES-1; first compound 2.53 µM,1.01
same,relative viability,SK-MES-1; first compound 8 µM,0.901
same,relative viability,HCC-366; first compound 0.08 µM,0.574
same,relative viability,HCC-366; first compound 0.253 µM,0.455
same,relative viability,HCC-366; first compound 0.8 µM,0.448
same,relative viability,HCC-366; first compound 2.53 µM,0.503
same,relative viability,HCC-366; first compound 8 µM,0.525
same,relative viability,NCI-H358; first compound 0.08 µM,0.573
same,relative viability,NCI-H358; first compound 0.253 µM,0.519
same,relative viability,NCI-H358; first compound 0.8 µM,0.448
same,relative viability,NCI-H358; first compound 2.53 µM,0.335
same,relative viability,NCI-H358; first compound 8 µM,0.546
same,relative viability,COR-L23; first compound 0.08 µM,0.656
same,relative viability,COR-L23; first compound 0.253 µM,0.606
same,relative viability,COR-L23; first compound 0.8 µM,0.575
same,relative viability,COR-L23; first compound 2.53 µM,0.601
same,relative viability,COR-L23; first compound 8 µM,0.575
same,relative viability,NCI-H661; first compound 0.08 µM,0.975
same,relative viability,NCI-H661; first compound 0.8 µM,0.921
same,relative viability,NCI-H661; first compound 2.53 µM,0.995
same,relative viability,NCI-H661; first compound 8 µM,0.962
same,relative viability,A-427; first compound 0.08 µM,0.802
same,relative viability,A-427; first compound 0.253 µM,0.839
same,relative viability,A-427; first compound 0.8 µM,0.896
same,relative viability,A-427; first compound 2.53 µM,0.845
same,relative viability,A-427; first compound 8 µM,0.878
same,relative viability,NCI-H1915; first compound 0.08 µM,0.971
same,relative viability,NCI-H1915; first compound 0.253 µM,0.863
same,relative viability,NCI-H1915; first compound 0.8 µM,0.709
same,relative viability,NCI-H1915; first compound 2.53 µM,0.863
same,relative viability,NCI-H1915; first compound 8 µM,0.784
same,relative viability,NCI-H1650; first compound 0.08 µM,0.923
same,relative viability,NCI-H1650; first compound 0.253 µM,0.946
same,relative viability,NCI-H1650; first compound 0.8 µM,0.791
same,relative viability,NCI-H1650; first compound 2.53 µM,0.891
same,relative viability,NCI-H1650; first compound 8 µM,0.835
same,relative viability,NCI-H1734; first compound 0.08 µM,0.646
same,relative viability,NCI-H1734; first compound 0.253 µM,0.633
same,relative viability,NCI-H1734; first compound 0.8 µM,0.716
same,relative viability,NCI-H1734; first compound 2.53 µM,0.609
same,relative viability,NCI-H1734; first compound 8 µM,0.722
same,relative viability,NCI-H650; first compound 0.08 µM,0.707
same,relative viability,NCI-H650; first compound 0.253 µM,0.711
same,relative viability,NCI-H650; first compound 0.8 µM,0.74
same,relative viability,NCI-H650; first compound 2.53 µM,0.633
same,relative viability,NCI-H650; first compound 8 µM,0.802
same,relative viability,NCI-H2023; first compound 0.08 µM,0.539
same,relative viability,NCI-H2023; first compound 0.253 µM,0.615
same,relative viability,NCI-H2023; first compound 0.8 µM,0.742
same,relative viability,NCI-H2023; first compound 2.53 µM,0.524
same,relative viability,NCI-H2023; first compound 8 µM,0.522
same,relative viability,EPLC-272H; first compound 0.08 µM,0.789
same,relative viability,EPLC-272H; first compound 0.253 µM,0.686
same,relative viability,EPLC-272H; first compound 0.8 µM,0.908
same,relative viability,EPLC-272H; first compound 2.53 µM,0.904
same,relative viability,EPLC-272H; first compound 8 µM,0.803
same,relative viability,NCI-H596; first compound 0.08 µM,0.943
same,relative viability,NCI-H596; first compound 0.253 µM,1.05
same,relative viability,NCI-H596; first compound 0.8 µM,0.928
same,relative viability,NCI-H596; first compound 2.53 µM,0.911
same,relative viability,NCI-H596; first compound 8 µM,0.831
same,relative viability,NCI-H3122; first compound 0.08 µM,0.27
same,relative viability,NCI-H3122; first compound 0.253 µM,0.28
same,relative viability,NCI-H3122; first compound 0.8 µM,0.275
same,relative viability,NCI-H3122; first compound 2.53 µM,0.301
same,relative viability,NCI-H3122; first compound 8 µM,0.279
